Data set [1] relates to HPAEC. The experiment in a line: Pharmacologic inhibitor effects on barrier enhancement (TER). As to conditions: 1 μM agonist, 60 min; for % Inhibition of Maximal TER Response (of Agonist-Only Control), PTX: 2-h preincubation 100 ng/ml PTX; for % Inhibition of Maximal TER Response (of Agonist-Only Control), MβCD: 2-h preincubation 2 mM MβCD; for % Inhibition of Maximal TER Response (of Agonist-Only Control), Gen: 30-min preincubation 200 μM genistein.
Description: Endothelial cells were grown to confluence in polycarbonate wells containing evaporated gold microelectrodes (surface area, 10^−3 cm^2) in series with a large gold counter electrode (1 cm^2) connected to a phase-sensitive lock-in amplifier. Current was applied across the electrodes by a 4,000-Hz AC voltage source with amplitude of 1 V in series with a 1 MΩ resistance to approximate a constant current source (˜1 μA). The in-phase and out-of-phase voltages between the electrodes were monitored in real time with the lock-in amplifier and subsequently converted to scalar measurements of transendothelial impedance, of which resistance was the primary focus. TER was monitored for 30 minutes to establish a baseline resistance (R0) which, for bovine pulmonary endothelium, was typically between 8 to 12×10^3Ω (wells with R0<7×10^3Ω were rejected). As cells adhere and spread out on the microelectrode, TER increases (maximal at confluence), whereas cell retraction, rounding, or loss of adhesion is reflected by a decrease in TER. These measurements provide a highly sensitive biophysical assay that indicates the state of cell shape and focal adhesion. Values from each microelectrode were pooled at discrete time points and plotted versus time as the mean±SE of the mean. TER values from each microelectrode were pooled as discrete time points and plotted versus time as the mean±S.E.M.
In this experiment, confluent HPAEC were plated on gold microelectrodes and then stimulated with 1 μM S1P, FTY720, 1R, 1S, 2R, or 2S after either a 2-h preincubation with 100 ng/ml PTX, 30-min preincubation with 200 μM genistein (Gen), or 2-h preincubation with 2 mM MβCD or their respective vehicle controls. Data were pooled from multiple TER experiments (4-10 independent experiments per condition) and expressed as percentage inhibition of maximal barrier enhancement at 60 min relative to agonist-only control.

The test system of data set [2] is LPS-induced lung injury in C57BL/6 mice. The experiment in a line: LPS-induced murine lung injury model. As to conditions: for capillary leak as total BAL protein, relative to PBS control: 1S 0.1-5.0 mg/kg i.p. single dose 1 h after LPS 2.5 mg/kg i.t., FTY720 0.5 mg/kg, S1P 0.026 mg/kg; for peripheral blood leukocyte and lymphocyte levels relative to PBS controls: 18 h after LPS.
Description: For experiments performed in intact animals, male C57BL/6 mice (8-10 weeks) were anesthetized with intraperitoneal ketamine and acetylpromazine mixture according to the approved protocol. Escherichia coli LPS solution (2.5 mg/kg) or sterile saline was instilled intratracheally via a 20-gauge catheter. Simultaneously, mice received either FTY720 or analogs (in doses: 0.01, 0.1, 0.5, 1, and 5 mg/kg i.p.) or PBS as vehicle. The animals were allowed to recover for 18 h. BAL and lungs were collected and stored at −70° C. for evaluation of lung injury.
Pure BAL fluids prepared for protein measurement or myeloperoxidase activity (MPO) lung homogenates were used to test albumin concentration. The assay was performed in 96-well plastic plates (Nalge Nunc A/S, Roskilde, Denmark). Plates were coated with mouse albumin (Bethyl Lab, Montgomery, Tex.), washed, and blocked. Aliquots (100-μl) of the sample or standard and 100 μl of goat anti-mouse albumin antibody (horseradish peroxidase-conjugated) (1:50,000) were then added, followed by incubation at 37° C. for 1 h. Finally, the substrate 3,3′,5,5′-tetramethylbenzidine was added for 10 min, and the reaction stopped by adding 100 μl of 2 M H2SO4. The absorbance at 450 nm was read on a kinetic microplate reader (Molecular Devices).
Myeloperoxidase (MPO) was isolated and measured from snap-frozen right lungs as follows (see also Remick et al., 1990, Am J Pathol 136: 49-60). The right lung was homogenized in 1 ml of 50 mM potassium phosphate, pH 6.0, with 0.5% hexadecyltrimethylammonium bromide. The resulting homogenate was sonicated and then centrifuged at 12,000 g for 15 min. The supernatant was mixed 1:30 with assay buffer (100 mM potassium phosphate, pH 6.0, 0.005% H2O2, 0.168 mg/ml o-dianisidine hydrochloride), and absorbance read at 490 nm. MPO units were calculated as the change in absorbance with respect to time.
Peripheral blood was examined by the Missouri University Research Animal Diagnostic Laboratory (Columbia, Mo.) for determination of total blood cell counts and differentials in blood samples.
Values are shown as the mean±S.E. Data were analyzed using a standard Student's t test or one-way analysis of variance, groups were compared by Newman-Keuls test, and significance in all cases was defined at p<0.05.

In data set [3] the test system is HPAEC. The experiment in a line: Transendothelial electrical resistance (TER) of HPAEC. The format is cell-based, human. Particulars: for maximal TER change: 10 μM. The protocol: Cells were grown at 37° C. in a 5% CO2 incubator, and passages 6 to 9 were used for experiments. Media were changed 1 day before experimentation.
The subject of data set [4] is radiation-induced lung injury (RILI) in C57BL/6 mice. The experiment in a line: Murine model of RILI: BAL protein, BAL cell counts, BAL cytokines, EBD extravasation, body weight, lung histology. The format is in vivo, mouse. As to conditions: for lung histology: inflammatory cell infiltration and interstitial edema induced by radiation: 0.1 mg/kg i.p. 2×/wk, 25 Gy; for lung histology: inflammatory cell infiltration and interstitial edema induced by radiation / BAL cell counts vs RILI-challenged controls / BAL protein vs RILI-challenged controls: 6 weeks; for BAL cell counts vs RILI-challenged controls / BAL protein vs RILI-challenged controls: 0.01 or 0.1 mg/kg i.p. 2×/wk from 1 wk before irradiation (20 Gy); for BAL cell counts vs RILI controls / BAL protein levels vs RILI controls: 3 times/wk from 1 wk before irradiation (20 Gy) up to 6 wks; for BAL cell counts vs RILI controls / BAL protein levels vs RILI controls / body weight loss after irradiation: simvastatin 10 mg/kg; for body weight loss after irradiation: analogs 0.1 mg/kg i.p., 3 times/wk from 1 wk before irradiation up to 6 wks. The protocol: Eight to 10-week-old C57BL/6J mice (Jackson Labs, Bar Harbor, Me.) were used for all studies in accordance with the University of Chicago Institutional Animal Care & Use Committee guidelines.
At the termination of each experiment, animals were euthanized by exsanguination under anesthesia in accordance with institutional guidelines. Both lungs were lavaged with 1.0 mL of Hank's buffered saline solution with the fluid allowed to equilibrate for 10 s before withdrawing. The pulmonary vasculature was perfused clear via the pulmonary artery with sterile phosphate-buffered saline (PBS). Both lungs were excised, weighed, and snap-frozen in liquid nitrogen for subsequent analysis. The BAL fluid collected was centrifuged at 500×g for 20 min at 4° C., and the supernatant was removed and recentrifuged at 12,000×g before snap-freezing. Cell pellets were resuspended in 0.5 mL of red blood cell lysis buffer (ACK Lysing Buffer; BioSource International, Camarillo, Calif.) for 20 min and then repelleted by centrifugation at 2500 rpm for 20 min at 4° C. The supernatant was decanted, and the cell pellet was resuspended in 0.2 mL of PBS for cellular analysis using a standard hemacytometer technique. A total of 300 BAL cells per slide were counted for cell differentials using a Diff-Quick-stained kit (Baxter Diagnostics, McGaw Park, Ill.). BAL protein concentrations were determined by a colorimetric BCA assay. Albumin concentrations in the BAL at 1:1000 and 1:100 dilutions, respectively, were quantitated by ELISA (Bethyl Labs, Montgomery, Tex.). To measure cytokines and chemokines, the BAL fluid was assayed with a Bioplex mouse cytokine kit (Bio-Rad, Hercules, Calif.) in accordance with the manufacturer's instructions.
All other chemicals were analytical or cell-culture grade and were obtained from various commercial sources. Evans Blue dye conjugated to albumin (EBA) was prepared by dissolving EBD to a concentration of 0.5% (5 mg/mL or 5.2 mM) in phosphate-buffered saline (PBS) (Ca^2+-Mg^2+ free; Invitrogen Corporation, Carlsbad, Calif.). To this solution, BSA was added to a final concentration of 4% (40 mg/mL or 0.6 mM), mixed well by stirring with a magnetic bar, allowed to stand for 30 min, and then sterile-filtered through a 0.22-μm syringe filter. The conjugate was stored in small aliquots at −80° C. To prevent cross-contamination, each aliquot was used only once in one animal and then discarded. 4, 6, 8, or 12 weeks after irradiation, the animals were injected with EBA via the jugular vein. At the end of exposure, the pulmonary circulation was flushed and lungs were harvested. Formamide extracts of lungs were prepared, with the initial modification that the homogenates were centrifuged at 12,000×g. Centrifugation at this relative centrifugal force (RCF) produced a compact pellet that allowed accurate measurement of the recovered volumes. Accurate estimation of such volumes is critical for calculating the final tissue dilution factor. Lungs, kidneys, and hearts from mice that were not injected with EBA were similarly extracted, to calculate the tissue-specific correction factors. […] Linear regression equations between absorbance at 740 nm (X) and 620 nm (Y) in tissue extracts of animals untreated with EBA were considered to be the tissue-specific correction factors. […] The EB concentration read in mg/mL was converted to μg/g wet weight of lungs using the dilution factor of the original homogenate as described above.
Eight to 10-week-old C57BL/6J mice (Jackson Labs, Bar Harbor, Me.) were used for all studies in accordance with the University of Chicago Institutional Animal Care & Use Committee guidelines. […] (FIG. 4A). Bronchoalveolar lavage (BAL) was performed as described above. BAL protein concentrations were determined by a colorimetric BCA assay. Albumin concentrations in the BAL at 1:1000 and 1:100 dilutions, respectively, were quantitated by ELISA (Bethyl Labs, Montgomery, Tex.).

Data set [5] concerns the target T1, S1P receptor 1 (S1PR1) (Homo sapiens, UniProt P21453). The experiment in a line: S1PR1 protein expression in HPAEC by Western blot. The format is cell-based. The arrangement: Cells were collected and S1PR1 expression level was detected by Western blot; endogenous in cells; host or cells: HPAEC (human pulmonary artery endothelial cells). Particulars: for S1PR1 expression level compared to control: 1 μM (SEW2871 10 μM), 4 h. The text has this: Cells were collected and S1PR1 expression level was detected by Western blot.
(In general: In western blotting, separated proteins are transferred to a membrane and probed.)

Data set [6] has as its system lung vascular leakage in RILI mice. In words: ViSen FMT lung imaging of intravascular probe extravasation in RILI mice. The format is in vivo, mouse. As to conditions: 0.1 mg/kg, 25 Gy, 6 weeks. The method, then:
Lung imaging studies were also performed with assessment of RILI-induced extravasation of an intravascular probe.
To assess microvascular changes associated with RILI in real-time, mice were imaged with ViSen FMT 1500 Quantitative Tomography In Vivo Imaging System. Intergisens^750 NIR (ViSen Medicals, Bedford, Mass.) was used as a probe, which targets the vasculature as a selective non-peptide small molecule integrin αvβ3 antagonist and a near-infrared fluorochrome. Mice were injected with probe ([…], IV) at 6 weeks post radiation and imaged 24 hrs later. Probe intensity was quantified using TrueQuant 3D software (VisSen Medicals).

The test system of data set [7] is β-arrestin. As to conditions: 1 μM (SEW2871 10 μM; (S)-FTY720-phosphonate 1, 10, 50 μM), 5 h.
Description: After another 2 h-incubation with fluorescence substrate, the fluorescence intensity (blue and green channels) were detected and the blue/green emission ratio was used as the activation indicator.
The target in data set [8] is T1, S1P receptor 1 (S1PR1). In words: Ubiquitination of S1PR1 in HPAEC (immunoprecipitation, ubiquitin Ab). Particulars: for ubiquitination of S1PR1 at 2 h: 1 μM (SEW2871 10 μM); for ubiquitination of S1PR1 at 1 h: 1 μM.
Excerpt: S1PR1 was immunoprecipitated by S1PR1Ab, and ubiquitination of S1PR1 was detected by ubiquitin Ab.

SMILES strings stand for the structures.

T1 sequence (P21453 whole entry): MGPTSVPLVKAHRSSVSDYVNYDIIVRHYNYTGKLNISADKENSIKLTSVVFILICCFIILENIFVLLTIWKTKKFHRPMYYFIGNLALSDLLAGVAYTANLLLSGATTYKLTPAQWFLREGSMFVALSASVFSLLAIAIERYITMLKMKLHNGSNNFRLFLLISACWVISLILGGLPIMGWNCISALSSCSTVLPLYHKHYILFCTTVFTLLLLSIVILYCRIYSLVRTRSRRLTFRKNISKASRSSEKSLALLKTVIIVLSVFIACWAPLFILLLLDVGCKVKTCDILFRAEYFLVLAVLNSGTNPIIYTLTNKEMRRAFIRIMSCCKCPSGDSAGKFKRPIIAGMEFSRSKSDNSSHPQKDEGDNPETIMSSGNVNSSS

For `CCCCCCCCc1ccc(CC[C@@](N)(CO)CCP(=O)(O)O)cc1` [1S, (S)-3-amino-3-(hydroxymethyl)-5-(4-octylphenyl)pentylphosphonic acid], in data set [1], the “% Inhibition of Maximal TER Response (of Agonist-Only Control), PTX” value is listed as 92.8 (±2.6) %; the “% Inhibition of Maximal TER Response (of Agonist-Only Control), MβCD” value is 97.2 (±0.8) %; the “% Inhibition of Maximal TER Response (of Agonist-Only Control), Gen” value is listed as 51.9 (±21.0) %. Besides, the “capillary leak as total BAL protein, relative to PBS control” value in data set [2] (18 h) was “significantly reduced capillary leak”. Besides, the “peripheral blood leukocyte and lymphocyte levels relative to PBS controls” value in data set [2] was “does not further alter peripheral blood leukocyte and lymphocyte levels”. In data set [2] (i.p. 1 h after LPS, 18 h), the “BAL WBC accumulation” value was “significantly reduced”, the “LPS-induced albumin leakage into BAL” value is reported as “significantly reduced”, the “LPS-induced albumin leakage into lung tissue” value was “significantly reduced” and the “lung tissue MPO activity” value is on record as “significantly reduced”. Moreover, in data set [2] (mouse, in vivo), the hematologic toxicity entry is “without apparent hematologic toxicity”. The “comparison with 1R, 2R, 2S in the LPS model” value in data set [2] (preliminary studies, data not shown) is given as “superior to the other barrier-promoting analogs”. Moreover, the “maximal percentage TER change compared with S1P and FTY720” value in data set [3] (1 μM, within 60 min) is recorded as “greater maximal percentage TER change”. Moreover, in data set [3] (within 60 min), the “maximal TER change” value is given as “even greater maximal TER elevation”. In data set [4], the “lung histology: inflammatory cell infiltration and interstitial edema induced by radiation” value is on record as “markedly attenuated”; the “BAL cell counts vs RILI-challenged controls” value is “significant decreases”; the “BAL protein vs RILI-challenged controls” value was “significant decreases”; the “BAL cell counts vs RILI controls” value was “significant decreases”. Further, in data set [4], the “BAL protein levels vs RILI controls” value is “significant decreases” and the “body weight loss after irradiation” value was “did not lose weight”. The “S1PR1 expression level compared to control” value in data set [5] was 87.6%. For the same compound, the “S1PR1 expression, agonist without MG132” value in data set [5] (1 μM, 4 h (FIG. 18)) was found to be 89.5%. Also, the “S1PR1 expression, agonist after MG132 pretreatment” value in data set [5] (MG132 10 μM 2 h, then 1 μM agonist 4 h) is 99.2%. In addition, the “radiation-induced probe extravasation (probe intensity), FMT imaging” value in data set [6] is “significant decreases”. The “activation of β-arrestin (blue/green emission ratio)” value in data set [7] is “only slightly activated”. In data set [8], the “ubiquitination of S1PR1 at 2 h” value was “does not induce ubiquitination” and the “ubiquitination of S1PR1 at 1 h” value is “only slight ubiquitination”.
Turning to `CCCCCCCCc1ccc(CCC(N)(CO)CO)cc1` [FTY720, 2-amino-2-[2-(4-octylphenyl)ethyl]propane-1,3-diol], in data set [1], the “% Inhibition of Maximal TER Response (of Agonist-Only Control), PTX” value is on record as 84.0 (±9.1) %; the “% Inhibition of Maximal TER Response (of Agonist-Only Control), MβCD” value was 88.1 (±5.6) %; the “% Inhibition of Maximal TER Response (of Agonist-Only Control), Gen” value is on record as 86.2 (±10.7) %. The “capillary leak as total BAL protein, relative to PBS control” value in data set [2] (18 h) is “reduction in permeability by 1S was comparable to that achieved by S1P or FTY720”. The “peripheral blood leukocyte and lymphocyte levels relative to PBS controls” value in data set [2] is listed as “does not suppress circulating WBC levels”. For the same compound, the “TER response (tracing)” value in data set [3] (1 μM) is listed as “delayed onset of barrier enhancement”. Further, the “maximal TER change” value in data set [3] (within 60 min) is “somewhat barrier-disruptive”. Further, in data set [4], the “lung histology: inflammatory cell infiltration and interstitial edema induced by radiation” value is “to a lesser extent”; the “BAL cell counts vs RILI-challenged controls” value is recorded as “did not confer significant protection”; the “BAL protein vs RILI-challenged controls” value is reported as “did not confer significant protection”; the “BAL cell counts vs RILI controls” value is recorded as “did not confer significant protection”. In data set [4], the “BAL protein levels vs RILI controls” value was “did not confer significant protection” and the “body weight loss after irradiation” value is reported as “did not show any beneficial effect”. Moreover, in data set [5], the “S1PR1 expression level compared to control” value is listed as 35.0%. Further, the “radiation-induced probe extravasation (probe intensity), FMT imaging” value in data set [6] is recorded as “no evidence of protection”. In data set [7], the “activation of β-arrestin (blue/green emission ratio)” value is “strongly activated”. For the same compound, in data set [8], the “ubiquitination of S1PR1 at 2 h” value is on record as “significant ubiquitination” and the “ubiquitination of S1PR1 at 1 h” value is “only slight ubiquitination”.

The values are drawn from patent publication US20130079309A1, “Method Of Treating Acute Lung Injury Using Sphingosine 1 Phosphate Analogs Or Sphingosine 1 Phosphate Receptor Agonists” (The Board of Trustees of the University of Illinois, priority 2010, published 2013).
